Assay results from US11535632B2, “Solid forms of an S1P-receptor modulator” (ESCAPE Bio, Inc., priority 2019, dated 2022).
“Also recorded” adds a separate entry of the source.

Assay: Gravimetric vapor sorption (GVS)
Format: physicochemical
Experimental: Sorption isotherms were obtained using a SMS DVS Intrinsic moisture sorption analyzer, controlled by DVS Intrinsic Control software. The sample temperature was maintained at 25° C. by the instrument controls. The humidity was controlled by mixing streams of dry and wet nitrogen, with a total flow rate of 200 ml/min. The relative humidity was measured by a calibrated Rotronic probe (dynamic range of 1.0-100% RH), located near the sample. The weight change, (mass relaxation) of the sample as a function of % RH was constantly monitored by a microbalance (accuracy ±0.005 mg).
Typically, 5-30 mg of sample was placed in a tared mesh stainless steel basket under ambient conditions. The sample was loaded and unloaded at 40% RH and 25° C. (typical room conditions). A moisture sorption isotherm was performed as outlined below (2 scans per complete cycle). The standard isotherm was performed at 25° C. at 10% RH intervals over a 0-90% RH range. Typically, a double cycle (4 scans) was carried out. Data analysis was carried out within Microsoft Excel using the DVS Analysis Suite.

## O=C(O)[C@H]1C[C@@H](N2CCc3oc(-c4ccc(OCc5ccc(Cl)cc5)cc4)nc3C2)C1 [Form B, (1s,3s)-3-(2-(4-((4-chlorobenzyl)oxy)phenyl)-6,7-dihydrooxazolo[4,5-c]pyridin-5(4H)-yl)cyclobutane-1-carboxylic acid]
  XRPD post GVS analysis: Unchanged by XRPD post analysis; also recorded: Sample unchanged by XRPD
Readily rehydrates after water loss
  Relative humidity at which the monohydrate is stable: > 20 % RH
